# Results published in publication PMC4370192, “Discovery of Specific Inhibitors for Intestinal E. coli β-Glucuronidase through In Silico Virtual Screening” (The Scientific World Journal, 2015).
# Columns and labels:
# [1] = target: T1, E. coli β-glucuronidase (eβG) (Escherichia coli, UniProt P05804); assay: In vitro βG-activity assay (pNPG hydrolysis), eβG; assay type: biochemical; conditions: for IC50: recombinant eβG, pNPG substrate, pH 7.3
# T1 construct: histidine tag (N); made in house; host or cells: E. coli BL21 (DE3)
# T1 sequence (P05804 whole entry): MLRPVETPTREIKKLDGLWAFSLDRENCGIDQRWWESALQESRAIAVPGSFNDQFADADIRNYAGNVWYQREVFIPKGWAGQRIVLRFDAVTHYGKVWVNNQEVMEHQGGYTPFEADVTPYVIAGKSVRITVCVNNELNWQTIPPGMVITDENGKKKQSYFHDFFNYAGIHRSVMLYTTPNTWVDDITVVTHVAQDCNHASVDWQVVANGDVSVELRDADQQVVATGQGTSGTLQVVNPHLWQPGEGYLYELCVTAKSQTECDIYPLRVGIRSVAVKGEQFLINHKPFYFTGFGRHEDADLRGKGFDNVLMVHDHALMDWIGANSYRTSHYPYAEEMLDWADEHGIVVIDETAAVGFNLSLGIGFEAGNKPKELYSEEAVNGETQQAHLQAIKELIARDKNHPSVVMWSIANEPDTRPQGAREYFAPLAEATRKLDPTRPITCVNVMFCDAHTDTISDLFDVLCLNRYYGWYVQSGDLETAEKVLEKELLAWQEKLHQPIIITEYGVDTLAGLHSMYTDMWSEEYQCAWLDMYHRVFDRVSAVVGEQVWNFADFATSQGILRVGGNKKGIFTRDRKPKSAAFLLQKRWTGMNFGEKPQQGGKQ
# Experimental: (§1) Plasmid pRESTB containing βG gene and a histidine tag at the N-terminus was constructed as described. Recombinant βG (human and E. coli) was produced by isopropyl β-D-thiogalactopyranoside (IPTG) induction of BL21 (DE3) bacteria. βG was purified from bacterial supernatants by affinity chromatography on nickels Sepharose 6 Fast Flow (GE Healthcare). The column was washed by phosphate-buffered saline (PBS), with 50 mM imidazole, and βG was eluted by PBS with 250 mM imidazole. The purified βG was desalted on a Sephadex G-25 column equilibrated with PBS and stored at −80°C.
# The candidate compounds were purchased from SPECS (The Netherlands). Each candidate was provided as a solid power and dissolved in 100% DMSO (Sigma-Aldrich) to 10 mM as stock. Candidates were screened for their inhibition specificity of eβG versus hβG, which were conducted at pH 7.3 or pH 5.4, in triplicate, respectively. 40 μL purified βG was treated with 10 μL compound solution at 37°C for 30 min and sequentially incubated with 50 μL of pNPG (Sigma-Aldrich) at 37°C for 30 min. Reactions were quenched with 5 μL of 2 N sodium hydroxide (Sigma-Aldrich). Each reaction consisted of 3.75 ng purified βG, 50 μM compound, and 5 mM pNPG in PBS containing 10% DMSO and 0.05% BSA (Sigma-Aldrich). βG-activities were measured by color development of pNP detected on a microplate reader at OD 405 nm. […] For IC50 determination, compounds at various concentrations (100 μM to 0.001 μM) were added.
# Supplementary file 740815.f1.pdf: Fifty-nine candidate compounds were acquired from the initial virtually screening which was designed to target the bacterial loop of eβG and its active site. The docking energy scores of 59 candidate compounds measured by the DOCK program are -43 to -55 kcal/mol. (Table S1) The candidate compounds were purchased from SPECS (Zoetermeer, The Netherlands). Each candidate was rovided as a solid power and dissolved in 100% DMSO (Sigma-Aldrich, MO, USA) to 10 mM as stock. Candidates were screening for their inhibition specificity of eβG verse hβG, which were conducted at pH 7.3 or pH 5.4 in triplicate, respectively. 40 µL purified βG was treated with 10 µL compound solution at 37 °C for 30 min, and sequentially incubated with 50 µL of pNPG (Sigma-Aldrich) at 37 °C for 30 min. Reactions were quenched with 5 µL of 2 N sodium hydroxide (Sigma-Aldrich). Each reaction consisted of 3.75 ng purified βG, 50 µM compound, and 5 mM pNPG in PBS containing 10% DMSO and 0.05% BSA (Sigma-Aldrich). βG-activities were measured by color development of pNP detected on a microplate reader at OD 405 nm. […] Especially, the inhibiting ability against eβG activity was >95% in 7 candidates of eβG specific inhibitors (Table S1).
# (§2) Fifty-nine candidate compounds were acquired from the initial virtually screening which was designed to target the bacterial loop of eβG and its active site. The docking energy scores of 59 candidate compounds measured by the DOCK program are -43 to -55 kcal/mol. (Table S1) The candidate compounds were purchased from SPECS (Zoetermeer, The Netherlands). Each candidate was provided as a solid power and dissolved in 100% DMSO (Sigma-Aldrich, MO, USA) to 10 mM as stock. Candidates were screening for their inhibition specificity of eβG verse hβG, which were conducted at pH 7.3 or pH 5.4 in triplicate, respectively. 40 μL purified βG was treated with 10 μL compound solution at 37 °C for 30 min, and sequentially incubated with 50 μL of pNPG (Sigma-Aldrich) at 37 °C for 30 min. Reactions were quenched with 5 μL of 2 N sodium hydroxide (Sigma-Aldrich). Each reaction consisted of 3.75 ng purified βG, 50 μM compound, and 5 mM pNPG in PBS containing 10% DMSO and 0.05% BSA (Sigma-Aldrich). βG-activities were measured by color development of pNP detected on a microplate reader at OD 405 nm. […]
# percent of βG activity compared with the untreated control.
# Especially, the inhibiting ability against eβG activity was >95% in 7 candidates of eβG specific inhibitors (Table S1).
# Table S1. […]
# human βG (hβG) = target: T2, human βG (hβG) (Homo sapiens, UniProt P08236); assay: In vitro βG-activity assay (pNPG hydrolysis), hβG; assay type: biochemical
# T2 construct: histidine tag (N); made in house; host or cells: E. coli BL21 (DE3)
# T2 sequence (P08236 23-651): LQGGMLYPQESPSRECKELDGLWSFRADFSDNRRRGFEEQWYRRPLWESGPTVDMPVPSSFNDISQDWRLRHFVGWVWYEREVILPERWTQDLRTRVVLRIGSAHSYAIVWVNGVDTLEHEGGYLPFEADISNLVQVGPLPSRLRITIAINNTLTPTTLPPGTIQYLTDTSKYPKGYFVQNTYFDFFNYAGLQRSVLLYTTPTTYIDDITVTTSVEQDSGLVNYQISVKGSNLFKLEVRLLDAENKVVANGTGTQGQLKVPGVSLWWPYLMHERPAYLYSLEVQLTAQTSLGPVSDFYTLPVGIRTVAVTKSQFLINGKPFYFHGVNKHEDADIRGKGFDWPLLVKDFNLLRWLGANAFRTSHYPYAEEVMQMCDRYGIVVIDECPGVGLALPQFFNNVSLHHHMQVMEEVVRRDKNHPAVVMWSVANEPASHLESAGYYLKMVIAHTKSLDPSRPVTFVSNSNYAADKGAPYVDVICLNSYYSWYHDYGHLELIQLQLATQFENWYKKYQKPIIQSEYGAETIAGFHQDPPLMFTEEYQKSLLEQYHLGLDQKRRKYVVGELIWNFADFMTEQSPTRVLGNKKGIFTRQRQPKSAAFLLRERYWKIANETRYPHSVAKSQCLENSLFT
# Experimental: as §1
# The candidate compounds were purchased from SPECS (The Netherlands). Each candidate was provided as a solid power and dissolved in 100% DMSO (Sigma-Aldrich) to 10 mM as stock. Candidates were screened for their inhibition specificity of eβG versus hβG, which were conducted at pH 7.3 or pH 5.4, in triplicate, respectively. 40 μL purified βG was treated with 10 μL compound solution at 37°C for 30 min and sequentially incubated with 50 μL of pNPG (Sigma-Aldrich) at 37°C for 30 min. Reactions were quenched with 5 μL of 2 N sodium hydroxide (Sigma-Aldrich). Each reaction consisted of 3.75 ng purified βG, 50 μM compound, and 5 mM pNPG in PBS containing 10% DMSO and 0.05% BSA (Sigma-Aldrich). βG-activities were measured by color development of pNP detected on a microplate reader at OD 405 nm.
# as §2, with “(Table” for “Fifty-nine candidate compounds were acquired from the initial virtually screening which was designed to target the bacterial loop of eβG and its active site. The docking energy scores of 59 candidate compounds measured by the DOCK program are -43 to -55 kcal/mol. (Table”, “rovided” for “provided”, “µL” for “μL”, “µM” for “μM”
# candidate compounds were purchased from SPECS (Zoetermeer, The Netherlands). Each candidate was provided as a solid power and dissolved in 100% DMSO (Sigma-Aldrich, MO, USA) to 10 mM as stock. Candidates were screening for their inhibition specificity of eβG verse hβG, which were conducted at pH 7.3 or pH 5.4 in triplicate, respectively. 40 μL purified βG was treated with 10 μL compound solution at 37 °C for 30 min, and sequentially incubated with 50 μL of pNPG (Sigma-Aldrich) at 37 °C for 30 min. Reactions were quenched with 5 μL of 2 N sodium hydroxide (Sigma-Aldrich). Each reaction consisted of 3.75 ng purified βG, 50 μM compound, and 5 mM pNPG in PBS containing 10% DMSO and 0.05% BSA (Sigma-Aldrich). βG-activities were measured by color development of pNP detected on a microplate reader at OD 405 nm.
# [2] = 50 μM compound, pH 7.3, percent of activity vs untreated control
# [3] = pH 5.4, percent of activity vs untreated control
# [4] = read-out: inhibition of eβG activity
SMILES,"eβG activity (%) with 50 μM compound [1, 2] [%]",hβG activity (%) with 50 μM compound (human βG (hβG); [3]) [%],also measured
CC(CNS(=O)(=O)c1ccc(Cl)cc1)n1cncn1 (centres unmarked) [Compound 3379],31.70,102.56,–
N=c1c(Nc2ccc(F)cc2)nnc(N)n1C(=O)c1ccccc1 [Compound 2074],12.46,101.07,–
CCN1CCN(S(=O)(=O)c2cccc(Cl)c2)CC1 [Compound 9572],42.66,106.78,–
CCOC(=O)c1ccc(NC(=S)N2CCN(C)CC2)cc1 [Compound 1089],47.22,119.17,–
CNC(=S)Nn1cnc2c(cnn2-c2ccccc2)c1=N [Compound 2138],19.23,107.27,–
O=C1c2ccccc2C(=O)c2c1cccc2S(=O)(=O)Nc1ccc(Cl)cc1 [Compound 8074],22.15,109.09,–
Cc1cccc(C(=O)NC2(C(F)(F)F)C(=O)Nc3c2c(=O)[nH]c(=O)n3-c2ccc(Cl)cc2)c1 (centres unmarked) [Compound 8572],17.66,102.81,–
CC(C)(C)c1ccc(S(=O)(=O)/N=C2\C=CC(=O)c3ccccc32)cc1 [Compound 7145],–,–,"activity at 50 µM [1, 2]: 1%; inhibition at 10 µM [1, 4]: 55%; inhibition at 50 µM [1, 4]: > 95%; IC50 [1]: 31.6 µM; effect on hβG activity (human βG (hβG); 50 μM compound): does not hamper hβG activity; activity at 50 µM (human βG (hβG); 50 μM compound, pH 5.4, percent of activity vs untreated control): 120%"
COc1ccc2ccccc2c1CNCC1CCNCC1 [Compound 9927],25.00,113.80,–
Cn1c(O)c(C=NC(Cc2c[nH]c3ccccc23)C(=O)O)c(=O)n(C)c1=O (centres unmarked) [Compound 5033],9.33,116.12,–
O=C(O)C1CC=CCC1C(=O)Nc1ccc2ccccc2c1 (centres unmarked) [Compound 4043],32.98,81.24,–
Cc1ccc(Cl)cc1NC1=NS(=O)(=O)c2ccccc21 [Compound 1448],11.11,109.67,–
COc1cc(C(=O)NCC(=N)N)cc(OC)c1OC [Compound 0015],17.59,108.51,–
CS(=O)(=O)c1ccc2nc(NC(=O)c3ccccc3C(=O)O)sc2c1 [Compound 9107],29.70,105.37,–
Cc1ccc2nc(CSc3nc(-c4ccncc4)ccc3C#N)[nH]c2c1 [Compound 9665],8.97,100.83,–
COc1ccc(S(=O)(=O)NCCN2CCOCC2)c2ccccc12 [Compound 7670],43.16,93.31,–
Cc1cc2nc(C[n+]3cccc(C(N)=O)c3)[nH]c2cc1C [Compound 0136],19.16,108.76,–
Cc1cccnc1NCn1c(=O)oc2cc([N+](=O)[O-])ccc21 [Compound 3043],25.14,103.55,–
CN1CCN(C(=O)c2cc3cc([N+](=O)[O-])ccc3oc2=O)CC1 [Compound 2715],53.06,114.38,–
"Cc1ccc(S(=O)(=O)N=C2C=C(Sc3nnc[nH]3)C(=O)c3ccccc32)cc1 [Compound 4041, 4-methyl-N-(4-oxo-3-(1H-1,2,4-triazol-5ylsulfanyl)-1(4H)-naphthalenylidene)benzenesulfonamide]",–,–,"inhibition at 10 µM [1, 4]: > 80%; IC50 [1]: 2.8 µM"
